Like-named read-outs stand apart in the source and are kept apart here.
Key:
NF-κB = NF-κB inhibition in NIH-3T3-KBF-Luc cells stimulated with TNFα; assay type: cell-based; conditions: for IC50: TNFα 30 ng/ml, 6 h
Protocol: To further study the target selectivity of the compounds described in the present invention the effect of the natural triterpenoids (OA; BA, UA, and MA), compounds II to XV of Formula (I) disclosed in present invention, and of comparative compound CDDO-Me on NF-κB inhibition, STAT-3 inhibition, Nrf2 activation and TGR5 activation was analyzed. For this study cell lines NIH-3T3-KBF-Luc, HeLa-STAT3-Luc, HaCaT-ARE-Luc and CHO-TGR5-CRE-luc were used respectively. The NIH3T3-KBF-Luc cell line stably transfected with the plasmid KBF-Luc plasmid, which contains three copies of NF-κB binding site (from major histocompatibility complex promoter), fused to a minimal simian virus 40 promoter driving the luciferase gene. Cells (1×10^4/well) were seeded in 96-well plates, treated with increasing concentrations of the compounds II to XV for 15 min and then stimulated with 30 ng/ml TNFα. After 6 h the luciferase activity in the cell lysates was measured as indicated above.

STAT3 = STAT3 inhibition in HeLa-STAT3-Luc cells stimulated with IFN-γ; assay type: cell-based; conditions: for IC50: IFN-γ 25 IU/ml, 6 h
Protocol: (§1) The HeLa-STAT3-luc cells stably transfected with the plasmid 4×M67 pTATA TK-Luc. Cells (20×10^3 cells/ml) were seeded in 96-well plates, treated with increasing concentrations of the compounds II to XIV, and of comparative compound CDDO-Me, for 15 min and then stimulated with IFN-γ 25 IU/ml. After 6 h the luciferase activity in the cell lysates was measured as indicated above. […] The HaCaT-ARE-Luc cell line contains the Nqo1 Antioxidant Response Element (ARE)-Luc reporter plasmid. ARE is activated by all members of the CNC family of factors (Nrf1, Nrf2, Nrf3 and p45 NF-E2). The cells were cultivated in 96-well plates at the concentration of 25×10^3 cells/well in a CO2 incubator at 37° C. For induction of Nrf2 activation the cells were treated with increasing concentrations of the compounds II to XV, and of comparative compound CDDO-Me, for 6 h. As a positive control the cells were treated with 0.02 mM of the antioxidant Tert-butyl-hydroquinone (TBHQ). Luciferase activity in the cell lysates was measured as indicated above and the EC50 calculated (Table III). The CHO-TGR5-CRE-Luc cells stably transfected with the pTGR5 and CRE-Luc. The CRE-responsive luciferase construct encodes the firefly luciferase reporter gene under the control of a minimal (m)CMV promoter and tandem repeats of the CRE transcriptional response element (TRE) and is useful to monitor cAMP signaling pathways activated by TGR5 agonists. Cells (1×10^4/well) were seeded in 96-well plates, treated with increasing concentrations of the compounds II to XV and CDDO-Me, for 6 h. As a positive control the cells were treated with 10 μM of LCA (lithocholic acid). Luciferase activity in the cell lysates was measured as indicated above and the EC50 calculated (Table III).

Nrf2 [1] = assay: Nrf2 activation/inhibition in HaCaT-ARE-Luc cells; assay type: cell-based
TGR5 = TGR5 activation in CHO-TGR5-CRE-Luc cells; assay type: cell-based; conditions: for EC50: 6 h
Protocol: The CHO-TGR5-CRE-Luc cells stably transfected with the pTGR5 and CRE-Luc. […] As a positive control the cells were treated with 10 μM of LCA (lithocholic acid). Luciferase activity in the cell lysates was measured as indicated above and the EC50 calculated (Table III).

Nrf2 [2] = assay: Nrf2 activation/inhibition in HaCaT-ARE-Luc cells; assay type: cell-based; conditions: for EC50: 6 h
Protocol: as §1

HIF-1α = HIF-1α transactivation assay in NIH-3T3-EPO-Luc fibroblast cells; assay type: cell-based; conditions: for Efficacy HIF-1α (IRA coefficient) / EC50: 6 h stimulation; for Efficacy HIF-1α (IRA coefficient): relative to 150 μM DFX; for EC50: read-out: Potency EC50 HIF-1α
Protocol: To investigate the biological activities of the different compounds, HIF-1α transactivation assays were performed either in NIH-3T3-EPO-Luc cells (Table II) or in HaCaT-EPO-luc cells (FIG. 2). The NIH3T3-EPO-luc and HaCaT-EPO-luc cells have been stably transfected with the plasmid Epo-Luc plasmid. The EPO-Hypoxia Response Element (HRE)-luciferase reporter plasmid contains three copies of the HRE consensus sequence from the promoter of the erythropoietin gene fused to the luciferase gene. NIH3T3-EPO-luc cells were maintained at 37° C. in a humidified atmosphere containing 5% CO2 in DMEM supplemented with 10% fetal calf serum (FBS), and 1% (v/v) penicillin/streptomycin. DFX was purchased from Sigma-Aldrich (USA). Cells (1×10^4/well in 96 well plates) were seeded the day before the assay. […] After six hours of stimulation the cells were lysed in 25 mM Tris-phosphate pH 7.8, 8 mM MgCl2, 1 mM DTT, 1% Triton X-100, and 7% glycerol during 15 min at RT in a horizontal shaker. Luciferase activity is measured using a microplate luminometer (Berthold) following the instructions of the luciferase assay kit (Promega, Madison, Wis., USA).

[3] = test system: STHdhQ7/Q7 and STHdhQ111/Q111 striatal cells; assay: 3-NP-induced cytotoxicity in striatal Q7 and Q111 cells (YOYO-1); assay type: cell-based, mouse; conditions: 6 h pre-treatment, 3-NP 10 mM 24 h; compound VII increasing concentrations, DFX 50 μM
Protocol: FIG. 8. Compound VII abrogates 3-NP toxicity in Q7 and […] striatal cells. Q7 and Q111 Striatal cells were pretreated with increasing concentrations of compound VII for 6 h and then exposed to 3-NP (10 mM) for an additional 24 h, after which YOYO-1 staining was used to investigate cell death. Cell death was determined using the IncuCyte HD software and the treatment with 3-NP alone in Q111 cells was considered as 100% of cell death.
To investigate whether HIF activation in striatal Q7 and Q111 cells is sufficient to protect striatal neurons (provide neuroprotection), the effect of compound VII on 3-NP induced death was examined. […]
STHdh^Q7/Q7 and STHdh^Q111/Q111 cells (10^4 cells/well in 96-well plates) were incubated with YOYO-1 (Life Technologies) and then treated with 3-NP (10 mM) and or DFX (50 μM) as a positive control for PHDs inhibition. […] The uptake of YOYO-1 by damaged cells correlates with the increase in YOYO-1 fluorescence. Treated cells are placed in an Incucyte FLR imaging system, and the YOYO-1 fluorescence is measured after 24 h of 3-NP treatment. Following the incubation period object counting analysis was performed using the Incucyte FLR software to calculate the total number of YOYO-1 fluorescence positive cells and total DNA containing objects (end point). […]

Structure (SMILES)	IC50 (NF-κB) [µM]	IC50 (STAT3) [µM]	EC50 (TGR5) [µM]	IC50 (Nrf2 [1]) [µM]	EC50 (Nrf2 [2]) [µM]	Efficacy HIF-1α (IRA coefficient) (HIF-1α)	EC50 (HIF-1α; Fibroblast) [µM]	inhibition of the NF-κB pathway induced by TNFα (in words) (NF-κB)	inhibition of the STAT3 pathway induced by IFNγ (in words) (STAT3)	activation of the Nrf2 pathway (in words) (Nrf2 [2])	activation of the EPO promoter as a surrogate marker of HIF-1α pathway activation (in words) (HIF-1α)	EC50 (HIF-1α) [µM]	agonistic TGR5 activity (in words) (TGR5)	neuroprotection to 3-NP-induced cytotoxicity (cell death) [3]
C=C(C)[C@@H]1CC[C@]2(C(=O)O)CC[C@]3(C)[C@H](CC[C@@H]4[C@@]5(C)CC[C@H](O)C(C)(C)[C@@H]5CC[C@]43C)[C@@H]12 [Betulinic acid, reference compound]	> 50	> 50	22.2	> 50	9.02	–	> 50	–	–	–	–	–	–	–
C=C(C)[C@@H]1CC[C@]2(C(=O)NO)CC[C@]3(C)[C@H](CC[C@@H]4[C@@]5(C)CC=CC(C)(C)[C@@H]5CC[C@]43C)[C@@H]12 [Compound X, Lupa-2,20(29)-dien-N-hydroxy-28-amide]	> 50	> 50	> 50	> 50	> 50	0.48	3.24	–	–	–	–	–	–	–
CC1(C)CC[C@]2(C(=O)O)CC[C@]3(C)C(=CC[C@@H]4[C@@]5(C)C[C@@H](O)[C@H](O)C(C)(C)[C@@H]5CC[C@]43C)[C@@H]2C1 [Maslinic acid, reference compound]	> 50	> 50	10.2	> 50	> 50	–	> 50	–	–	–	None of the natural triterpenoids	–	–	–
C=C(C)[C@@H]1CC[C@]2(C(=O)NO)CC[C@]3(C)[C@H](CC[C@@H]4[C@@]5(C)CC/C(=N\O)C(C)(C)[C@@H]5CC[C@]43C)[C@@H]12 [Compound XI, 3-Hydroxyimino-N-hydroxy-lup-20(29)-en-28-amide]	> 50	> 50	17.5	> 50	> 50	0.31	2.58	–	–	–	–	–	showed agonistic TGR5 activity	–
CC(=O)N(O)CCCCCNC(=O)CCC(=O)N(O)CCCCCNC(=O)CCC(=O)N(O)CCCCCN [DFX, desferrioxamine, reference compound]	–	–	–	–	–	–	–	–	–	–	–	–	–	also protected the cells from the cytotoxic activity of 3-NP

The next lines start with results.

IC50 (NF-κB) [µM]	IC50 (STAT3) [µM]	EC50 (TGR5) [µM]	Structure (SMILES)	IC50 (Nrf2 [1]) [µM]	EC50 (Nrf2 [2]) [µM]	Efficacy HIF-1α (IRA coefficient) (HIF-1α)	EC50 (HIF-1α; Fibroblast) [µM]	inhibition of the NF-κB pathway induced by TNFα (in words) (NF-κB)	inhibition of the STAT3 pathway induced by IFNγ (in words) (STAT3)	activation of the Nrf2 pathway (in words) (Nrf2 [2])	activation of the EPO promoter as a surrogate marker of HIF-1α pathway activation (in words) (HIF-1α)	EC50 (HIF-1α) [µM]	agonistic TGR5 activity (in words) (TGR5)	neuroprotection to 3-NP-induced cytotoxicity (cell death) [3]
> 50	> 50	> 50	CC1(C)CC[C@]2(C(=O)NO)CC[C@]3(C)C(=CC(=O)[C@@H]4[C@@]5(C)CC[C@H](O)C(C)(C)[C@@H]5CC[C@]43C)[C@@H]2C1 [Compound IV, (3β) 3-Hydroxy-11-oxo-olean-12-en-N-hydroxy-28-amide]	> 50	10	0.15	11.4	–	–	–	–	–	–	–
1.2	2.38	> 50	COC(=O)[C@]12CCC(C)(C)C[C@H]1[C@H]1C(=O)C=C3[C@@]4(C)C=C(C#N)C(=O)C(C)(C)[C@@H]4CC[C@@]3(C)[C@]1(C)CC2 [CDDO—Me, 2-Cyano-3,12-dioxo-oleana-1,9(11)-dien-28-oic acid methyl ester, reference compound]	0.06	40.9	–	> 50	clearly inhibited	clearly inhibited	activated the Nrf2 pathway	does not result in activation of the HIF pathway	–	–	–
> 50	> 50	> 50	CC1(C)CC[C@]2(C(=O)NO)CC[C@]3(C)C(=CC[C@@H]4[C@@]5(C)CC/C(=N\O)C(C)(C)[C@@H]5CC[C@]43C)[C@@H]2C1 [Compound III, 3-Hydroxyimino-N-hydroxy-olean-12-en-28-amide]	> 50	23.9	0.43	3.83	–	–	–	–	–	–	–
> 50	> 50	> 50	CC1(C)CC[C@]2(C(=O)NO)CC[C@]3(C)C(=CC[C@@H]4[C@@]5(C)CC=CC(C)(C)[C@@H]5CC[C@]43C)[C@@H]2C1 [Compound VI, Oleana-2,12-dien-N-hydroxy-28-amide]	> 50	> 50	0.16	–	–	–	–	–	5	–	–
> 50	> 50	> 50	CC(=O)O[C@H]1CC[C@]2(C)[C@H]3C(=O)C=C4[C@@H]5CC(C)(C)CC[C@]5(C(=O)NO)CC[C@@]4(C)[C@]3(C)CC[C@H]2C1(C)C [Compound V, (3β) 3-Acetyloxy-11-oxo-olean-12-en-N-hydroxy-28-amide]	> 50	> 50	0.16	6.71	–	–	–	–	–	–	–
> 50	> 50	[…]	CC1(C)CC[C@]2(C(=O)O)CC[C@]3(C)C(=CC[C@@H]4[C@@]5(C)CC[C@H](O)C(C)(C)[C@@H]5CC[C@]43C)[C@@H]2C1 [Oleanolic acid, reference compound]	> 50	> 50	–	> 50	–	–	–	None of the natural triterpenoids	–	–	–

Reference: US10766855B2, “Hydroxamate triterpenoid derivatives” (VIVACELL BIOTECHNOLOGY ESPANA S.L., priority 2016, dated 2020)
